Species: Rattus norvegicus
Assay: DrugMatrix - Regimen: Daily Repeat
Format: toxicity, organism-based, Sprague-Dawley
Set-up: regimen Daily Repeat, gender Male, age 6-8 weeks
Conditions: in vivo, po, 20 mg/kg, route oral GAVAGE, dose level Low, vehicle .5 % CMC; for ABSOLUTE BASOPHIL / ABSOLUTE EOSINOPHIL / ABSOLUTE LYMPHOCYTE / ABSOLUTE MONOCYTE / ABSOLUTE SEGMENTED NEUTROPHIL / BASOPHIL / EOSINOPHIL / ERYTHROCYTE COUNT / HEMATOCRIT / HEMOGLOBIN / LEUKOCYTE COUNT / LYMPHOCYTE / MEAN CORPUSCULAR HEMOGLOBIN / MEAN CORPUSCULAR HEMOGLOBIN CONCENTRATION / MEAN CORPUSCULAR VOLUME / MONOCYTE / NEUTROPHIL / NUCLEATED RED BLOOD CELLS / PLATELET COUNT: tissue Blood; for ALANINE AMINOTRANSFERASE / ALKALINE PHOSPHATASE / ASPARTATE AMINOTRANSFERASE / BLOOD UREA NITROGEN / CARBON DIOXIDE / CHLORIDE / CHOLESTEROL / CREATINE PHOSPHOKINASE / CREATININE / GLUCOSE / LACTATE DEHYDROGENASE / LIPASE / PHOSPHORUS / POTASSIUM / SODIUM / TOTAL BILIRUBIN / TOTAL PROTEIN / URIC ACID: tissue Plasma

SMILES: O=C1CC2(CCCC2)CC(=O)N1CCCCN1CCN(c2ncccn2)CC1 [BUSPIRONE]
- ABSOLUTE BASOPHIL (72 h, time 3 day): 0 CELLS/uL
- ABSOLUTE EOSINOPHIL (72 h, time 3 day): 51 CELLS/uL
- ABSOLUTE LYMPHOCYTE (72 h, time 3 day): 11615 CELLS/uL
- ABSOLUTE MONOCYTE (72 h, time 3 day): 151.33 CELLS/uL
- ABSOLUTE SEGMENTED NEUTROPHIL (72 h, time 3 day): 1416 CELLS/uL
- BASOPHIL (72 h, time 3 day): 0%
- EOSINOPHIL (72 h, time 3 day): 0.33%
- ERYTHROCYTE COUNT (72 h, time 3 day): 5.69 x10E6/uL
- HEMATOCRIT (72 h, time 3 day): 36.17%
- HEMOGLOBIN (72 h, time 3 day): 14.1 G/DL
- LEUKOCYTE COUNT (72 h, time 3 day): 13.23 x10E3/uL
- LYMPHOCYTE (72 h, time 3 day): 87.67%
- MEAN CORPUSCULAR HEMOGLOBIN (72 h, time 3 day): 24.73 pg
- MEAN CORPUSCULAR HEMOGLOBIN CONCENTRATION (72 h, time 3 day): 39 G/DL
- MEAN CORPUSCULAR VOLUME (72 h, time 3 day): 63.57 fL
- MONOCYTE (72 h, time 3 day): 1%
- NEUTROPHIL (72 h, time 3 day): 11%
- NUCLEATED RED BLOOD CELLS (72 h, time 3 day): 0.33 /100WBC
- PLATELET COUNT (72 h, time 3 day): 1072.33 x10E3/uL
- ALANINE AMINOTRANSFERASE (72 h, time 3 day): 59.33 u/L
- ALKALINE PHOSPHATASE (72 h, time 3 day): 480 u/L
- ASPARTATE AMINOTRANSFERASE (72 h, time 3 day): 97 u/L
- BLOOD UREA NITROGEN (72 h, time 3 day): 15 mg/dL
- CARBON DIOXIDE (72 h, time 3 day): 23 mmol/L
- CHLORIDE (72 h, time 3 day): 102 MEQ/L
- CHOLESTEROL (72 h, time 3 day): 82.33 mg/dL
- CREATINE PHOSPHOKINASE (72 h, time 3 day): 412 u/L
- CREATININE (72 h, time 3 day): 0.23 mg/dL
- GLUCOSE (72 h, time 3 day): 167 mg/dL
- LACTATE DEHYDROGENASE (72 h, time 3 day): 304.33 u/L
- LIPASE (72 h, time 3 day): 9 u/L
- PHOSPHORUS (72 h, time 3 day): 13.47 mg/dL
- POTASSIUM (72 h, time 3 day): 6.53 MEQ/L
- SODIUM (72 h, time 3 day): 146.87 MEQ/L
- TOTAL BILIRUBIN (72 h, time 3 day): 0.2 mg/dL
- TOTAL PROTEIN (72 h, time 3 day): 6 G/DL
- URIC ACID (72 h, time 3 day): 1.9 mg/dL
- ABSOLUTE BASOPHIL (120 h, time 5 day): 0 CELLS/uL
- ABSOLUTE EOSINOPHIL (120 h, time 5 day): 106.67 CELLS/uL
- ABSOLUTE LYMPHOCYTE (120 h, time 5 day): 13027.67 CELLS/uL
- ABSOLUTE MONOCYTE (120 h, time 5 day): 125.67 CELLS/uL
- ABSOLUTE SEGMENTED NEUTROPHIL (120 h, time 5 day): 973.33 CELLS/uL
- BASOPHIL (120 h, time 5 day): 0%
- EOSINOPHIL (120 h, time 5 day): 0.67%
- ERYTHROCYTE COUNT (120 h, time 5 day): 5.35 x10E6/uL
- HEMATOCRIT (120 h, time 5 day): 34.23%
- HEMOGLOBIN (120 h, time 5 day): 13.57 G/DL
- LEUKOCYTE COUNT (120 h, time 5 day): 14.23 x10E3/uL
- LYMPHOCYTE (120 h, time 5 day): 91.67%
- MEAN CORPUSCULAR HEMOGLOBIN (120 h, time 5 day): 25.4 pg
- MEAN CORPUSCULAR HEMOGLOBIN CONCENTRATION (120 h, time 5 day): 39.67 G/DL
- MEAN CORPUSCULAR VOLUME (120 h, time 5 day): 64.03 fL
- MONOCYTE (120 h, time 5 day): 1%
- NEUTROPHIL (120 h, time 5 day): 6.67%
- NUCLEATED RED BLOOD CELLS (120 h, time 5 day): 0 /100WBC
- PLATELET COUNT (120 h, time 5 day): 1461 x10E3/uL
- ALANINE AMINOTRANSFERASE (120 h, time 5 day): 42.33 u/L
- ALKALINE PHOSPHATASE (120 h, time 5 day): 354 u/L
- ASPARTATE AMINOTRANSFERASE (120 h, time 5 day): 77 u/L
- BLOOD UREA NITROGEN (120 h, time 5 day): 14.67 mg/dL
- CARBON DIOXIDE (120 h, time 5 day): 24.33 mmol/L
- CHLORIDE (120 h, time 5 day): 102.33 MEQ/L
- CHOLESTEROL (120 h, time 5 day): 67 mg/dL
- CREATINE PHOSPHOKINASE (120 h, time 5 day): 241.33 u/L
- CREATININE (120 h, time 5 day): 0.14 mg/dL
- GLUCOSE (120 h, time 5 day): 154 mg/dL
- LACTATE DEHYDROGENASE (120 h, time 5 day): 200.67 u/L
- LIPASE (120 h, time 5 day): 8.33 u/L
- PHOSPHORUS (120 h, time 5 day): 14.3 mg/dL
- POTASSIUM (120 h, time 5 day): 7.16 MEQ/L
- SODIUM (120 h, time 5 day): 144.93 MEQ/L
- TOTAL BILIRUBIN (120 h, time 5 day): 0.23 mg/dL
- TOTAL PROTEIN (120 h, time 5 day): 5.63 G/DL
- URIC ACID (120 h, time 5 day): 1.97 mg/dL

Source: ChEMBL document CHEMBL3885881, “DrugMatrix”
